# Literature values, collected in US8555875B2, “Inhalation devices and related methods for administration of sedative hypnotic compounds” (Map Pharmaceuticals, Inc., priority 2008, dated 2013).
# Tests used:
# [1] = in vivo
# [2] = in vivo; remark: listed apart in the source
# [3] = system: melatonin receptor MT1/MT2; settings: metabolite MII versus ramelteon
SMILES,Half Life [1],Duration of Action [2],"mean functional activity, times lower potency than ramelteon [3]"
"CN1CCN(C(=O)OC2c3nccnc3C(=O)N2c2ccc(Cl)cn2)CC1 (single isomer, unassigned) [Eszopiclone, 6-(5-chloro-2-pyridyl)-5[(4-methyl-1-piperazinyl)carbonyloxy]-7-oxo-6,7-di hydro-5H-pyrrolo[3,4-b]pyrazine]",6 h,8 h,–
Cc1nnc2n1-c1ccc(Cl)cc1C(c1ccccc1)=NC2 [Alprazolam],9 to 14 h,<6 h,–
CNC1=Nc2ccc(Cl)cc2C(c2ccccc2)=[N+]([O-])C1 [Chlordiazepoxide],7 to 13 h,–,–
O=C1CN=C(c2ccccc2Cl)c2cc([N+](=O)[O-])ccc2N1 [Clonazepam],18 to 28 h,24 to 28 h,–
CN1C(=O)CN=C(c2ccccc2)c2cc(Cl)ccc21 [Diazepam],–,24 to 28 h,–
CCN(CC)CCN1C(=O)CN=C(c2ccccc2F)c2cc(Cl)ccc21 [Flurazepam],50 to 100 h,24 to 28 h,–
O=C1Nc2ccc(Cl)cc2C(c2ccccc2Cl)=NC1O (centres unmarked) [Lorazepam],9 to 19 h,12 to 18 h,–
CN1C(=O)C(O)N=C(c2ccccc2Cl)c2cc(Cl)ccc21 (centres unmarked) [Lormetazepam],10 h,12 to 18 h,–
CC(O)C(=O)NCCC1CCc2ccc3c(c21)CCO3 (centres unmarked) [MII],–,–,21 times
Cc1ncc2n1-c1ccc(Cl)cc1C(c1ccccc1F)=NC2 [Midazolam],1.3 to 2.5 h,4 h,–
O=C1CN=C(c2ccccc2)c2cc([N+](=O)[O-])ccc2N1 [Nitrazepam],28 h,24 h,–
CN1C(=O)C(O)N=C(c2ccccc2)c2cc(Cl)ccc21 (centres unmarked) [Temazepam],–,12 to 18 h,–
Cc1nnc2n1-c1ccc(Cl)cc1C(c1ccccc1Cl)=NC2 [Triazolam],2 to 4 h,<6 h,–
Cc1ccc(-c2nc3ccc(C)cn3c2CC(=O)N(C)C)cc1 [Zolpidem],–,<4 h,–
